In publication PMC11085442 (Molecules, 2024):

Assays:
[1] = test system: LPS-stimulated RAW264.7 cell lines; experiment: LPS-induced NO production (Griess) in RAW264.7; type: cell-based, murine; settings: for The production of NO: LPS group 49.86 ± 0.62, control 1.20 ± 0.38; for inhibitory activity against NO production compared with curcumin: 10 μM
Protocol: RAW 264.7 cells were plated in 96-well plates at a density of 1 × 10^4 cells/well and incubated overnight at 37 °C under 5% CO2. […] Dexamethasone (Solarbio, D8040, Beijing, China) was used as the positive control. Then, 24 h later, NO production was determined by measuring the nitrite content using Griess reagents. Fifty microliters of culture supernatants were transferred to 96-well plates and mixed with 50 μL Griess reagent A. After incubation at room temperature for 5 min, the samples were mixed with an equal volume Griess reagent B for another 5 min. The absorbance of each mixture at 540 nm was measured using a microplate reader.

[2] = test system: H2O2-stimulated PC 12 cell lines; experiment: Protection against H2O2-induced oxidative damage (CCK-8); type: cell-based, rat; settings: H2O2-induced oxidative damage, PC 12, H2O2 group 49.69 ± 1.37, control 100; for viability at 5 µM / viability at 10 µM / viability at 20 µM: Rattus norvegicus; for viability at 5 µM: PC-12, Dose 5 μM; for viability at 10 µM: PC-12, Dose 10 μM; for viability at 20 µM: PC-12, Dose 20 μM; for Cell viability: in % (unit assumed)
Protocol: PC 12 cells were seeded in 96-well plates at a density of 8000 cells/well and incubated overnight. […] After incubating under the same conditions for 24 h, 10 μL CCK-8 solution was added to each well. After 2 h incubation, the absorbance of each well was measured at 450 nm using a microplated reader (Multiskan MK-3, Thermo, Waltham, MA, USA).

PC 12 cell lines = experiment: Radiation protection in vitro (CCK-8); type: cell-based, rat; settings: for Cell viability / viability at 5 µM / viability at 10 µM / viability at 20 µM: radiation 8.0 Gy, PC 12, radiation group 50.22 ± 1.08; for Cell viability: in % (unit assumed); for viability at 5 µM / viability at 10 µM / viability at 20 µM: Rattus norvegicus; for viability at 5 µM: PC-12, Dose 5 μM; for viability at 10 µM: PC-12, Dose 10 μM; for viability at 20 µM: PC-12, Dose 20 μM; for radiation protection capacity: versus radiation group
Protocol: The rat adrenal pheochromocytoma cells (PC 12) were used for in vitro studies. A Cell Counting Kit-8 (CCK-8, Applygen Technologies Co., Ltd., Beijing, China) assay was used to determine cell viability. […] Cells were irradiated with dose of 8.0 Gy at a dose rate of 0.8 Gy/min. Then, 10 μL CCK-8 solution was added to all the wells. After 4 h incubation, the absorbance at 450 nm of each well was measured in a multiscan photometer.

[3] = Dose 5 μM, LPS-stimulated RAW264.7
[4] = Dose 10 μM, LPS-stimulated RAW264.7
[5] = Dose 15 μM, LPS-stimulated RAW264.7

COc1cc(/C=C/C(=O)CC(=O)/C=C/c2cc(OC)c(O)c(OC)c2)cc(CN(C)C)c1O [Compound 2]
The production of NO [1, 3]: 43.78 ± 1.52 | The production of NO [1, 4]: 42.04 ± 1.70 | The production of NO [1, 5]: 36.99 ± 1.85 | viability at 5 µM [2]: 55.7 ± 0.79% | viability at 10 µM [2]: 58.2 ± 0.8% | viability at 20 µM [2]: 63.4 ± 1.13% | Cell viability (PC 12 cell lines; Dose 5 μM): 50.96 ± 1.31 | Cell viability (PC 12 cell lines; Dose 10 μM): 52.89 ± 2.05 | Cell viability (PC 12 cell lines; Dose 20 μM): 54.68 ± 1.78

COc1cc(/C=C/C(=O)CC(=O)/C=C/c2ccc(O)cc2C)cc(CN(C)C)c1O [Compound 3]
The production of NO [1, 3]: 39.26 ± 2.12 | The production of NO [1, 4]: 30.62 ± 1.71 | The production of NO [1, 5]: 10.36 ± 3.69 | viability at 5 µM [2]: 64.7 ± 2.69% | viability at 10 µM [2]: 71.7 ± 3.77% | viability at 20 µM [2]: 81.7 ± 2.41% | Cell viability (PC 12 cell lines; Dose 5 μM): 49.57 ± 2.70 | Cell viability (PC 12 cell lines; Dose 10 μM): 51.85 ± 2.04 | Cell viability (PC 12 cell lines; Dose 20 μM): 57.44 ± 1.80

COc1cc(/C=C/C(=O)CC(=O)/C=C/c2c(OC)cc(O)cc2OC)cc(CN(C)C)c1O [Compound 14]
The production of NO [1, 3]: 27.84 ± 1.41 | The production of NO [1, 4]: 22.09 ± 0.55 | The production of NO [1, 5]: 9.39 ± 0.34 | Cell viability ([2]; Dose 5 μM): 59.32 ± 2.89 | Cell viability ([2]; Dose 10 μM): 65.73 ± 2.40 | Cell viability ([2]; Dose 20 μM): 74.30 ± 1.25 | viability at 5 µM (PC 12 cell lines): 53.08 ± 0.34% | viability at 10 µM (PC 12 cell lines): 54.4 ± 0.72% | viability at 20 µM (PC 12 cell lines): 63.5 ± 1.49%

COc1cc(/C=C/C(=O)CC(=O)/C=C/c2cc(C)c(O)c(C)c2)cc(CN(C)C)c1O [Compound 8]
The production of NO [1, 3]: 42.90 ± 0.85 | The production of NO [1, 4]: 20.21 ± 1.82 | The production of NO [1, 5]: 5.46 ± 0.34 | viability at 5 µM [2]: 64.6 ± 1.64% | viability at 10 µM [2]: 67.8 ± 2.26% | viability at 20 µM [2]: 81.7 ± 3.21% | radiation protection capacity (PC 12 cell lines; 10 μM): a certain degree of radiation protection capacity | Cell viability (PC 12 cell lines; Dose 5 μM): 53.58 ± 0.78 | Cell viability (PC 12 cell lines; Dose 10 μM): 55.23 ± 1.26 | Cell viability (PC 12 cell lines; Dose 20 μM): 78.50 ± 2.59

COc1cc(/C=C/C(=O)CC(=O)/C=C/c2c(C)cc(O)cc2C)cc(CN(C)C)c1O [Compound 13]
The production of NO [1, 3]: 26.57 ± 1.74 | The production of NO [1, 4]: 21.53 ± 0.35 | The production of NO [1, 5]: 10.02 ± 0.61 | Cell viability ([2]; Dose 5 μM): 62.94 ± 0.50 | Cell viability ([2]; Dose 10 μM): 69.55 ± 1.06 | Cell viability ([2]; Dose 20 μM): 80.61 ± 0.83 | viability at 5 µM (PC 12 cell lines): 61.4 ± 1.58% | viability at 10 µM (PC 12 cell lines): 67.8 ± 2.32% | viability at 20 µM (PC 12 cell lines): 87.38 ± 0.6%

COc1cc(/C=C/C(=O)CC(=O)/C=C/c2ccc(OC)c(OC)c2OC)cc(CN(C)C)c1O [Compound 6]
inhibitory activity against NO production compared with curcumin [1]: better inhibitory activity | The production of NO [1, 3]: 27.16 ± 2.73 | The production of NO [1, 4]: 14.67 ± 3.66 | The production of NO [1, 5]: 5.95 ± 0.13 | viability at 5 µM [2]: 56.6 ± 1.66% | viability at 10 µM [2]: 67.8 ± 1.91% | viability at 20 µM [2]: 94.89 ± 0.58% | radiation protection capability compared with curcumin (PC 12 cell lines; 10 μM, irradiated PC 12): better radiation protection capability | radiation protection capacity (PC 12 cell lines; 10 μM): a certain degree of radiation protection capacity | Cell viability (PC 12 cell lines; Dose 5 μM): 58.25 ± 1.05 | Cell viability (PC 12 cell lines; Dose 10 μM): 62.18 ± 1.03 | Cell viability (PC 12 cell lines; Dose 20 μM): 83.08 ± 6.65

COc1cc(/C=C/C(=O)CC(=O)/C=C/c2cc(C)c(O)cc2C)cc(CN(C)C)c1O [Compound 12]
inhibitory activity against NO production compared with curcumin [1]: better inhibitory activity | The production of NO [1, 3]: 32.06 ± 0.58 | The production of NO [1, 4]: 15.78 ± 0.50 | The production of NO [1, 5]: 11.39 ± 1.00 | Cell viability ([2]; Dose 5 μM): 60.69 ± 1.53 | Cell viability ([2]; Dose 10 μM): 70.31 ± 1.65 | Cell viability ([2]; Dose 20 μM): 79.23 ± 1.18 | radiation protection capacity (PC 12 cell lines; 10 μM): a certain degree of radiation protection capacity | viability at 5 µM (PC 12 cell lines): 56.6 ± 1.03% | viability at 10 µM (PC 12 cell lines): 63.1 ± 1.52% | viability at 20 µM (PC 12 cell lines): 76.8 ± 1.27%

COc1cc(/C=C/C(=O)CC(=O)/C=C/c2ccc(O)cc2)cc(CN(C)C)c1O [Compound 10]
inhibitory activity against NO production compared with curcumin [1]: better inhibitory activity | The production of NO [1, 3]: 36.66 ± 2.00 | The production of NO [1, 4]: 15.36 ± 2.09 | The production of NO [1, 5]: 4.91 ± 0.77 | inhibition at 10 µM ([1]; Mus musculus, at 10 μM, LPS-stimulated RAW264.7, read-out: inhibition rate (anti-inflammatory activity)): 71% | Cell viability ([2]; Dose 5 μM): 53.53 ± 2.28 | Cell viability ([2]; Dose 10 μM): 58.20 ± 1.24 | Cell viability ([2]; Dose 20 μM): 77.80 ± 2.65 | viability at 5 µM (PC 12 cell lines): 58.4 ± 1.95% | viability at 10 µM (PC 12 cell lines): 63.9 ± 2.22% | viability at 20 µM (PC 12 cell lines): 79.3 ± 3.13%
